The test system of the series is UBE3A-AS. The experiment in a line: UBE3A-AS steady state RNA (TaqMan qRT-PCR) in GABAergic iPSC-derived neurons. The format is cell-based, human. The settings on record: for low concentration that significantly reduced UBE3A-AS RNA levels: human iPSC-derived neurons; for Relative Potency: relative to ASO 4.S = 1; for Difference, UBE3A-AS RNA level / UBE3A-AS RNA levels relative to the control treatment (in words): ASOs 10 μM; for decrease of UBE3A-AS RNA levels: 10 μM. The method, then: Human-specific ASOs were then designed to target this region, which included four ASOs targeting non-polymorphic regions in human and regions conserved (100%) with macaque (Rhesus and Cynomolgus) (Table 7 and FIG. 3A). Human induced pluripotent stem cell (iPSC) neural precursor cells were differentiated into GABAergic neurons for 14 DIV and then treated with a control ASO [ASO-C (10 μM, n=3)], Topotecan [Topo (1 μM, n=2)], and six ASOs targeting UBE3A-AS [ASO-1, ASO-2, ASO-3, ASO-4, ASO-5, and ASO-6 (10 μM, n=3)]. Additionally, an ASO targeting an intronic region downstream of SNORD109B was included (ASO-7). Six days post-treatment (20 DIV), RNA was isolated from the neurons and the steady state RNA levels of UBE3A-AS and UBE3A were estimated relative to the control treatment (FIG. 3B).
The potency of ASO-4 was further examined given its effect on UBE3A-AS RNA levels. GABAergic iPSC-derived neurons were treated at 14 DIV with a 10-point ½ log dose response curve of ASO-4 and Topotecan, as a positive control and for comparisons between treatment [1 nM, 3 nM, 10 nM, 30 nM, 100 nM, 300 nM, 1 μM, 3 μM, 10 μM, and 30 μM (ASO-4, n=6; Topotecan, n=2)]. At 20 DIV, the steady state RNA levels of UBE3A-AS were measured and dose response curves fitted to estimate the IC50 and Emax (i.e., maximum UBE3A-AS inhibition) (Table 9 and FIG. 4A). […]
Additional ASOs targeting the 5′-end of UBE3A-AS were then designed to optimize the target sequences of ASO-4 (ASO-4.1, ASO-4.2, ASO-4.3, and ASO-4.4) as well as two other target regions, ASO-3 (ASO-3.1 and ASO-3.2) and ASO-6 (ASO-6.1) (Table 11). Additionally, ASO-4 was manufactured at two different vendors for comparative purposes (ASO-4.S, Sigma; ASO-4.I, Integrated DNA Technologies). Human iPSC-derived neurons (GABAergic) were treated at 14 DIV with a […] ½ log dose curve of ASO-3.1, ASO-3.2, ASO-4.S, ASO-4.I, ASO-4.1, ASO-4.2, ASO-4.3, ASO-4.4, and ASO-6.1 [30 nM, 100 nM, 300 nM, 1 μM (n=6)]. At 20 DIV, the IC50 and Emax of each ASO was estimated as described above (FIG. 5A-B and Table 12). […] No significant difference was observed between ASO-4.S and ASO-4.I.
The potency of ASO-4 and ASO-6.1 was further examined in iPSC-derived neurons at a later time point in differentiation. GABAergic iPSC-derived neurons were treated at 29 DIV with a 10-point ½ log dose response curve of ASO-4 and ASO-6.1 [1 nM, 3 nM, 10 nM, 30 nM, 100 nM, 300 nM, 1 μM, 3 μM, 10 μM, and 30 μM (n=3)]. At 35 DIV, the IC50 and Emax of each ASO was estimated as described above (FIG. 5C-D and Table 14). The dose response curves of ASO-4 and ASO-6.1 were not similar (Parallelism test: F(3,172)=22.7, p<0.0001).
GABAergic and glutamatergic induced pluripotent stem cell (iPSC) derived neural precursor cells (NRC-100-010-001 and GNC-301-030-001, Cellular Dynamics International, Madison Wis.) were differentiated into neurons according to the manufactures protocol. Briefly, neural precursor cells were thawed and resuspended in chemically defined medium and added to sterile-culture plates coated with poly-D-lysine and laminin. The medium was replaced 24 hr after plating and then one-half of the medium was replaced every 3-5 days afterwards.
For cultured iPSC-derived neurons, RNA isolation and cDNA synthesis were performed using the Cell-to-CT kit (Thermo Fisher Scientific) in a lysate volume of 55 μl.
The steady state RNA levels of target transcripts were measured using TaqMan quantitative reverse-transcription PCR (qRT-PCR) assays. Total reaction volume was 10 uL, including 2 μl of cDNA, 1× Gene Expression Master mix (4369016, Thermo Fisher Scientific, Waltham, Mass.), and 1× TaqMan primer assay (Thermo Fisher Scientific). Cycling conditions were 2 minutes at 50° C., 10 minutes at 95° C., and 40 cycles of 15 seconds at 95° C. and 1 minute at 60° C., with readings taken at the 60° C. step of every cycle. […]
(In general: Real-time PCR tracks product formation cycle by cycle.)

Setting [1] is: optimized ASOs, 14 DIV to 20 DIV, parallel model, 3-parameter logistic, read-out: IC50 (M), UBE3A-AS.
Where [2] appears, read: optimized ASOs, treated 14 DIV, RNA 20 DIV, 5-point dose curve 30 nM-3 μM, full model, 3-parameter logistic, read-out: IC50 Estimate, UBE3A-AS.
[3] abbreviates: treated 29 DIV, RNA 35 DIV, 10-point dose curve, full model, 4-parameter logistic (Hill), read-out: IC50 Estimate, UBE3A-AS.
The mark [4] stands for this setting: Topo 1 μM, 14 DIV to 20 DIV, ASO-1 minus labelled treatment.
Setting [5] is: Topo 1 μM, 14 DIV to 20 DIV, ASO-R minus labelled treatment.
Setting [6] is: Topo 1 μM, 14 DIV to 20 DIV, Topo minus labelled treatment.
Setting [7] is: Topo 1 μM, treated 14 DIV, RNA 20 DIV, normalized to ASO-C, ASO-C minus labelled treatment.
Setting [8] is: 14 DIV to 20 DIV, ASO-3 minus labelled treatment.
Setting [9] is: 14 DIV to 20 DIV, ASO-5 minus labelled treatment.
[10] abbreviates: 14 DIV to 20 DIV, ASO-6 minus labelled treatment.
Setting [11] is: treated 14 DIV, RNA 20 DIV, 10-point dose curve, 4-parameter logistic (Hill).

Read-outs that look alike come from different tables or passages of the source.

Turning to “A^L*G^L*A^L*a*t*g*g*c*a*c*a*t*c*t*5mC^L*T^L*T^L*G^L (NNNATGGCACATCTNNNN; LNA gapmer, PS, 5-methylcytosine, chemistry not fully specified) [ASO-4.4.PS.L]”, the “potency relative to the other ASOs of Cluster 1” value (Cluster 1 ASOs, 18 DIV to 24 DIV) was “at least 3 times”. In addition, for the setting “candidate ASOs, Cluster 1 representing the 9 most potent ASOs”, the “Cluster (hierarchical clustering of fitted dose response curves)” value was 1.
The term IC50 denotes the concentration at which inhibition is half-maximal. On to “C^O*U^O*G^O*G^O*t*g*t*c*a*a*c*a*a*g*C^O*C^O*A^O*A^O [ASO-6.1]”, for which the “low concentration that significantly reduced UBE3A-AS RNA levels” value came out at 3 nM. Besides, for the setting “treated 14 DIV, RNA 20 DIV”, the “3 μM (Mean), Emax, normalized UBE3A-AS RNA level relative to vehicle” value turned out to be 0.23. In addition, for the setting “treated 29 DIV, RNA 35 DIV”, the “30 μM (Mean), normalized UBE3A-AS RNA level relative to vehicle” value is reported as 0.06; the “ASO-6.1/ASO-4 ratio: Emax (equivalence test)” value was −1.3; the “ASO-6.1/ASO-4 ratio: IC50 (equivalence test)” value worked out at 1.03. Besides, the IC50 under setting [1] was found to be 7.2e-07 M. In addition, for the setting “optimized ASOs, parallel model”, the “Relative Potency” value was “highest relative potency”. The “Relative Potency” value (optimized ASOs, parallel model, listed as ASO 6.1) is 2.07. Besides, the IC50 under setting [2] was 5.2e-07 M. The IC50 under setting [3] is 5.17e-07 M.
On to “G^O*U^O*A^O*C^O*U^O*c*t*t*c*c*t*c*a*g*t*C^O*A^O*U^O*C^O*C^O [ASO-2]”, for which the “Difference, UBE3A-AS RNA level” value runs as follows: under setting [4], 0.38; under setting [5], 0.87; under setting [6], 0.23; under setting [7], 0.89; under setting [8], 0.10; (14 DIV to 20 DIV, ASO-4 minus labelled treatment) 0.02. In addition, the “Difference, UBE3A-AS RNA level” value was determined as 0.18 under setting [9] and 0.06 under setting [10]. Besides, where the note is “treated 14 DIV, RNA 20 DIV”, the “UBE3A-AS RNA levels relative to the control treatment (in words)” value is “largest effect”.
Turning to `CC[C@@]1(O)C(=O)OCc2c1cc1n(c2=O)Cc2cc3c(CN(C)C)c(O)ccc3nc2-1` [Topotecan, reference compound], the “30 μM (Mean), normalized UBE3A-AS RNA level relative to vehicle” value (treated 14 DIV, RNA 20 DIV) worked out at 0.21. Moreover, the “Difference, UBE3A-AS RNA level” value reads like this: under setting [4], 0.15; under setting [5], 0.64; under setting [7], 0.66. In addition, for the setting “Homo sapiens, Neuron, treated 14 DIV, RNA 20 DIV, 10-point dose curve 1 nM-30 μM, full model, 4-parameter logistic (Hill), read-out: IC50 Estimate (M), UBE3A-AS”, the IC50 is 3.37e-08 M. Moreover, the “Emax Estimate (normalized UBE3A-AS RNA level relative to vehicle)” value under setting [11] is reported as 0.26.
As to “U^O*A^O*G^O*A^O*A^O*t*g*g*c*a*c*a*t*c*t*C^O*U^O*U^O*G^O*G^O [ASO-4]”, the “low concentration that significantly reduced UBE3A-AS RNA levels” value was found to be 3 nM. Also, where the note is “treated 14 DIV, RNA 20 DIV”, the “3 μM (Mean), Emax, normalized UBE3A-AS RNA level relative to vehicle” value is 0.29; the “decrease of UBE3A-AS RNA levels” value was 87%; the “30 μM (Mean), normalized UBE3A-AS RNA level relative to vehicle” value stood at 0.09; the “UBE3A-AS RNA levels relative to the control treatment (in words)” value was “largest effect”. Further, under “treated 14 DIV, RNA 20 DIV”, the “ASO-4/Topotecan Emax ratio (equivalence test)” value is −4.1 and the “ASO-4/Topotecan IC50 ratio (equivalence test)” value is reported as 1.2. Besides, the “decrease of UBE3A-AS RNA levels” value (treated 59 DIV, RNA 65 DIV) is 81%. Moreover, for the setting “treated 29 DIV, RNA 35 DIV”, the “30 μM (Mean), normalized UBE3A-AS RNA level relative to vehicle” value amounted to 0.11. For the same compound, the “Difference, UBE3A-AS RNA level” value under setting [4] was found to be 0.36. Besides, the “Difference, UBE3A-AS RNA level” value under setting [5] was found to be 0.85. In addition, the “Difference, UBE3A-AS RNA level” value under setting [6] came to 0.21. Also, under setting [7], the “Difference, UBE3A-AS RNA level” value is on record as 0.87. The “Difference, UBE3A-AS RNA level” value under setting [8] is listed as 0.08. The “Difference, UBE3A-AS RNA level” value under setting [9] is given as 0.16. Also, under setting [10], the “Difference, UBE3A-AS RNA level” value is 0.04. Besides, the IC50 under setting [1] stood at 1.49e-06 M. The “Relative Potency” value (optimized ASOs, parallel model) is recorded as “highest relative potency”. In addition, the “Relative Potency” value (optimized ASOs, parallel model, listed as ASO 4.S) is on record as 1. Besides, the IC50 under setting [2] is 1.06e-06 M. Also, the half-inhibitory concentration (IC50) (treated 14 DIV, RNA 20 DIV, 10-point dose curve 1 nM-30 μM, full model, 4-parameter logistic (Hill), read-out: IC50 Estimate (M), UBE3A-AS) was 6.13e-07 M. Moreover, the “Emax Estimate (normalized UBE3A-AS RNA level relative to vehicle)” value under setting [11] is listed as −0.06. In addition, the “Emax Estimate (normalized UBE3A-AS RNA level relative to vehicle)” value (treated 29 DIV, RNA 35 DIV, 4-parameter logistic (Hill)) is recorded as 0.08. Also, the IC50 under setting [3] was 7.77e-07 M.

These data come from patent US11198869B2, “Angelman syndrome antisense treatment” (The Texas A&M University System, priority 2017, dated 2021).
